Measurements from the supplement of paper PMC11208160.

Assay: recombinant barcode read abundance after kanamycin selection (control-corrected) (log10(CPM+1)); higher = more efficient recombination; sequences stand for … in AGTGCAGAGAAAATCGGCCAGTTTTCTCTGCCTGCAGTCCGCATGCCGT…ATTTATGCAGCGGACTGCCTTTCTCCCAAAGTGATAAACCGGACAGTATCATGGACCGGTTTTCCCGGTAATCCGTATTTGCAAGGTTGGTTTCACT; site = the 11-nt target
Method in brief: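 The screen was pooled in E. coli and paired targets with IS621 bridge RNA target-binding loops. Recombination efficiency is taken from barcode counts per million at recombinant junctions, averaged and adjusted against the control. Values, in the form log10(CPM+1), come from duplicate plating on chloramphenicol/ampicillin LB agar or on chloramphenicol/ampicillin/kanamycin with 0.1 mM IPTG.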

Row | Sequence | recombinant barcode read abundance (log10)
1 | GGGCGGATTTGGGTTCTAACCTGTTGCGGAG [GGGCGGACTCC_LTGcore_TT_RTGcore_CT] (site GGGCGGACTCC) (LTG core: TT, RTG core: CT) | 0.188
2 | GGGCGTGAATGGGTTCTAACCTGTTGCCTAG [GGGCGTGCTAG_LTGcore_AA_RTGcore_CT] (site GGGCGTGCTAG) (LTG core: AA, RTG core: CT) | 0.0426
3 | GGGCGTGCCTGGGTTCTAACCTGTTGCCTGG [GGGCGTGCTAG_LTGcore_CC_RTGcore_CC] (site GGGCGTGCTAG) (LTG core: CC, RTG core: CC) | 0.138
4 | GGGCGTGCGTGGGTTCTAACCTGTTGCCTAG [GGGCGTGCTAG_LTGcore_CG_RTGcore_CT] (site GGGCGTGCTAG) (LTG core: CG, RTG core: CT) | 0.0925
5 | GGGCGTGCTTGGGTTCTAACCTGTTGCCTCC [GGGCGTGCTAG_LTGcore_CT_RTGcore_GG] (site GGGCGTGCTAG) (LTG core: CT, RTG core: GG) | 1.53
6 | GGGCGTGCTTGGGTTCTAACCTGTTGCCTGC [GGGCGTGCTAG_LTGcore_CT_RTGcore_GC] (site GGGCGTGCTAG) (LTG core: CT, RTG core: GC) | 0.847
7 | GGGCGTGCTTGGGTTCTAACCTGTTGCCTTC [GGGCGTGCTAG_LTGcore_CT_RTGcore_GA] (site GGGCGTGCTAG) (LTG core: CT, RTG core: GA) | 0.564
8 | GGGCGTGTATGGGTTCTAACCTGTTGCCTAG [GGGCGTGCTAG_LTGcore_TA_RTGcore_CT] (site GGGCGTGCTAG) (LTG core: TA, RTG core: CT) | 0
9 | GGGCGTGTATGGGTTCTAACCTGTTGCCTTA [GGGCGTGCTAG_LTGcore_TA_RTGcore_TA] (site GGGCGTGCTAG) (LTG core: TA, RTG core: TA) | 0.36
10 | GGTGCCCCTTGGGTTCTAACCTGTTGCCGAC [GGTGCCCCTCG_LTGcore_CT_RTGcore_GT] (site GGTGCCCCTCG) (LTG core: CT, RTG core: GT) | 0.297
11 | GGTGCCCCTTGGGTTCTAACCTGTTGCCGTC [GGTGCCCCTCG_LTGcore_CT_RTGcore_GA] (site GGTGCCCCTCG) (LTG core: CT, RTG core: GA) | 0.332
12 | GGTGCCCGATGGGTTCTAACCTGTTGCCGTC [GGTGCCCCTCG_LTGcore_GA_RTGcore_GA] (site GGTGCCCCTCG) (LTG core: GA, RTG core: GA) | 0.134
13 | GGTGCCCTCTGGGTTCTAACCTGTTGCCGAG [GGTGCCCCTCG_LTGcore_TC_RTGcore_CT] (site GGTGCCCCTCG) (LTG core: TC, RTG core: CT) | 0.0654
14 | GTCGCCCAGTGGGTTCTAACCTGTTGCTAAG [GTCGCCCCTTA_LTGcore_AG_RTGcore_CT] (site GTCGCCCCTTA) (LTG core: AG, RTG core: CT) | 0.139
15 | GTCGCCCAGTGGGTTCTAACCTGTTGCTACT [GTCGCCCCTTA_LTGcore_AG_RTGcore_AG] (site GTCGCCCCTTA) (LTG core: AG, RTG core: AG) | 0.283
16 | GTCGCCCCATGGGTTCTAACCTGTTGCTATG [GTCGCCCCTTA_LTGcore_CA_RTGcore_CA] (site GTCGCCCCTTA) (LTG core: CA, RTG core: CA) | 0.379
17 | GTCGCCCCGTGGGTTCTAACCTGTTGCTAAG [GTCGCCCCTTA_LTGcore_CG_RTGcore_CT] (site GTCGCCCCTTA) (LTG core: CG, RTG core: CT) | 0.325
18 | GTCGCCCCTTGGGTTCTAACCTGTTGCTAGC [GTCGCCCCTTA_LTGcore_CT_RTGcore_GC] (site GTCGCCCCTTA) (LTG core: CT, RTG core: GC) | 0.805
19 | GTCGCCCGATGGGTTCTAACCTGTTGCTAAG [GTCGCCCCTTA_LTGcore_GA_RTGcore_CT] (site GTCGCCCCTTA) (LTG core: GA, RTG core: CT) | 0
20 | GTCGCCCGATGGGTTCTAACCTGTTGCTATC [GTCGCCCCTTA_LTGcore_GA_RTGcore_GA] (site GTCGCCCCTTA) (LTG core: GA, RTG core: GA) | 0.103
21 | GTCGCCCGGTGGGTTCTAACCTGTTGCTACC [GTCGCCCCTTA_LTGcore_GG_RTGcore_GG] (site GTCGCCCCTTA) (LTG core: GG, RTG core: GG) | 0.458
22 | GTCGCCCGTTGGGTTCTAACCTGTTGCTAAG [GTCGCCCCTTA_LTGcore_GT_RTGcore_CT] (site GTCGCCCCTTA) (LTG core: GT, RTG core: CT) | 0.431
23 | GTCGCCCTCTGGGTTCTAACCTGTTGCTAGA [GTCGCCCCTTA_LTGcore_TC_RTGcore_TC] (site GTCGCCCCTTA) (LTG core: TC, RTG core: TC) | 0.236

Row | Sequence | recombinant barcode read abundance (log10)
24 | TAAGAATAATGGGTTCTAACCTGTTGCCTTT [TAAGAATCTAG_LTGcore_AA_RTGcore_AA] (site TAAGAATCTAG) (LTG core: AA, RTG core: AA) | 1.48
25 | TAAGAATATTGGGTTCTAACCTGTTGCCTAT [TAAGAATCTAG_LTGcore_AT_RTGcore_AT] (site TAAGAATCTAG) (LTG core: AT, RTG core: AT) | 0.141
26 | TAAGAATCCTGGGTTCTAACCTGTTGCCTAG [TAAGAATCTAG_LTGcore_CC_RTGcore_CT] (site TAAGAATCTAG) (LTG core: CC, RTG core: CT) | 0.193
27 | TAAGAATCTTGGGTTCTAACCTGTTGCCTCG [TAAGAATCTAG_LTGcore_CT_RTGcore_CG] (site TAAGAATCTAG) (LTG core: CT, RTG core: CG) | 1.61
28 | TAAGAATCTTGGGTTCTAACCTGTTGCCTCT [TAAGAATCTAG_LTGcore_CT_RTGcore_AG] (site TAAGAATCTAG) (LTG core: CT, RTG core: AG) | 0.422
29 | TAAGAATCTTGGGTTCTAACCTGTTGCCTGA [TAAGAATCTAG_LTGcore_CT_RTGcore_TC] (site TAAGAATCTAG) (LTG core: CT, RTG core: TC) | 0.145
30 | TAAGAATCTTGGGTTCTAACCTGTTGCCTTT [TAAGAATCTAG_LTGcore_CT_RTGcore_AA] (site TAAGAATCTAG) (LTG core: CT, RTG core: AA) | 0.421
31 | TAGAGGGAATGGGTTCTAACCTGTTGCGGTT [TAGAGGGCTCC_LTGcore_AA_RTGcore_AA] (site TAGAGGGCTCC) (LTG core: AA, RTG core: AA) | 0.0221
32 | TAGAGGGACTGGGTTCTAACCTGTTGCGGGT [TAGAGGGCTCC_LTGcore_AC_RTGcore_AC] (site TAGAGGGCTCC) (LTG core: AC, RTG core: AC) | 0.247
33 | TAGAGGGCATGGGTTCTAACCTGTTGCGGTG [TAGAGGGCTCC_LTGcore_CA_RTGcore_CA] (site TAGAGGGCTCC) (LTG core: CA, RTG core: CA) | 0.23
34 | TAGAGGGCTTGGGTTCTAACCTGTTGCGGAG [TAGAGGGCTCC_LTGcore_CT_RTGcore_CT] (site TAGAGGGCTCC) (LTG core: CT, RTG core: CT) | 2.86
35 | TAGAGGGCTTGGGTTCTAACCTGTTGCGGCC [TAGAGGGCTCC_LTGcore_CT_RTGcore_GG] (site TAGAGGGCTCC) (LTG core: CT, RTG core: GG) | 0.0898
36 | TAGAGGGCTTGGGTTCTAACCTGTTGCGGGA [TAGAGGGCTCC_LTGcore_CT_RTGcore_TC] (site TAGAGGGCTCC) (LTG core: CT, RTG core: TC) | 0.378
37 | TAGAGGGCTTGGGTTCTAACCTGTTGCGGGT [TAGAGGGCTCC_LTGcore_CT_RTGcore_AC] (site TAGAGGGCTCC) (LTG core: CT, RTG core: AC) | 0.122
38 | TAGAGGGCTTGGGTTCTAACCTGTTGCGGTC [TAGAGGGCTCC_LTGcore_CT_RTGcore_GA] (site TAGAGGGCTCC) (LTG core: CT, RTG core: GA) | 0.158
39 | TAGAGGGCTTGGGTTCTAACCTGTTGCGGTT [TAGAGGGCTCC_LTGcore_CT_RTGcore_AA] (site TAGAGGGCTCC) (LTG core: CT, RTG core: AA) | 0.0916
40 | TAGAGGGGATGGGTTCTAACCTGTTGCGGAG [TAGAGGGCTCC_LTGcore_GA_RTGcore_CT] (site TAGAGGGCTCC) (LTG core: GA, RTG core: CT) | 0.441
41 | TCGCGACCATGGGTTCTAACCTGTTGCCGAG [TCGCGACCTCG_LTGcore_CA_RTGcore_CT] (site TCGCGACCTCG) (LTG core: CA, RTG core: CT) | 0.0739
42 | TCGCGACCTTGGGTTCTAACCTGTTGCCGCG [TCGCGACCTCG_LTGcore_CT_RTGcore_CG] (site TCGCGACCTCG) (LTG core: CT, RTG core: CG) | 0.436
43 | TCGCGACCTTGGGTTCTAACCTGTTGCCGGA [TCGCGACCTCG_LTGcore_CT_RTGcore_TC] (site TCGCGACCTCG) (LTG core: CT, RTG core: TC) | 0.26
44 | TCGCGACCTTGGGTTCTAACCTGTTGCCGTA [TCGCGACCTCG_LTGcore_CT_RTGcore_TA] (site TCGCGACCTCG) (LTG core: CT, RTG core: TA) | 0.0883
45 | TCGCGACTCTGGGTTCTAACCTGTTGCCGAG [TCGCGACCTCG_LTGcore_TC_RTGcore_CT] (site TCGCGACCTCG) (LTG core: TC, RTG core: CT) | 0.0502
